For one compound, Activity results are on record in ChEMBL document CHEMBL5385878, “Synthesis and structure-activity optimization of 7-azaindoles containing aza-β-amino acids targeting the influenza PB2 subunit” (Eur J Med Chem, 2023).

The assay concerns Influenza A virus. Put plainly: Antiviral activity against Influenza A/WSN/33 harboring H275Y mutant at 0.3 uM. The class given is functional, organism-based.

The source made the active and inactive calls. The rule behind the calls is not given here.

As for `CC(C)(C)N(CC(=O)O)Nc1nc(-c2c[nH]c3ncc(F)cc23)ncc1F`, the result was Active.
